Experimental data published in ChEMBL document CHEMBL1201862, “PubChem BioAssay data set” (2004).
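In this assay, cells in 96-well plates receive the compound at five concentrations for 48 hours. Endpoints are linearly interpolated between the surrounding concentrations. Abbreviation: GI50, concentration required for 50% inhibition of growth.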 The source made the active and inactive calls. Rule as the data show it: active = GI50 up to about 1.1 µM and inactive = higher.

How the values were obtained:
Assay in all cases: NCI tumour cell line growth inhibition, 48 h
KM12 = system: KM12
SN12C = system: SN12C
MDA-MB-231 = system: MDA-MB-231
MDA-N = system: MDA-N
HCC 2998 = system: HCC 2998
NCI-H226 = system: NCI-H226
CAKI-1 = system: CAKI-1
K562 = system: K562
786-0 = system: 786-0
SNB-19 = system: SNB-19
SNB-75 = system: SNB-75
Malme-3M = system: Malme-3M
EKVX = system: EKVX
SF-295 = system: SF-295
HCT-116 = system: HCT-116
OVCAR-8 = system: OVCAR-8
HT-29 = system: HT-29
HOP-62 = system: HOP-62
CCRF-CEM = system: CCRF-CEM
A549 = system: A549

SMILES	GI50 (KM12)	GI50 (SN12C)	GI50 (MDA-MB-231)	GI50 (MDA-N)	GI50 (HCC 2998)	GI50 (NCI-H226)	GI50 (CAKI-1)	GI50 (K562)	GI50 (786-0)	GI50 (SNB-19)	GI50 (SNB-75)	GI50 (Malme-3M)	GI50 (EKVX)	GI50 (SF-295)	GI50 (HCT-116)	GI50 (OVCAR-8)	GI50 (HT-29)	GI50 (HOP-62)	GI50 (CCRF-CEM)	GI50 (A549)
CCc1c(C)c(C#N)c(=S)n(C2OC(COC(C)=O)C(OC(C)=O)C(OC(C)=O)C2OC(C)=O)c1-c1ccccc1 (stereo unspecified)	> 31.6 µM (inactive)	> 31.6 µM (inactive)	28.4 µM (inactive)	> 31.6 µM (inactive)	> 31.6 µM (inactive)	18.5 µM (inactive)	72.3 µM (inactive)	21.1 µM (inactive)	20.7 µM (inactive)	> 10 µM (inactive)	1.84 µM (inactive)	> 31.6 µM (inactive)	97.9 µM (inactive)	16.2 µM (inactive)	26.7 µM (inactive)	> 31.6 µM (inactive)	> 31.6 µM (inactive)	15.8 µM (inactive)	33.7 µM (inactive)	> 31.6 µM (inactive)
C/C(=N\NC(=S)N(C)C)c1nc2cccnc2[nH]1	–	1.16 µM (inactive)	0.875 µM (active)	1.27 µM (inactive)	0.71 µM (active)	0.399 µM (active)	0.501 µM (active)	2.16 µM (inactive)	0.597 µM (active)	1.02 µM (active)	3.18 µM (inactive)	1.38 µM (inactive)	0.475 µM (active)	–	0.893 µM (active)	0.982 µM (active)	0.548 µM (active)	0.54 µM (active)	0.379 µM (active)	0.792 µM (active)
FC(F)(F)c1ccc2nc3n(c2c1)C(c1c(Cl)cccc1Cl)SC3 (stereo unspecified)	14.6 µM (inactive)	18.1 µM (inactive)	18.1 µM (inactive)	11.7 µM (inactive)	18.5 µM (inactive)	17.3 µM (inactive)	14.8 µM (inactive)	–	14.7 µM (inactive)	18.6 µM (inactive)	13 µM (inactive)	13.3 µM (inactive)	13.8 µM (inactive)	16.4 µM (inactive)	10.5 µM (inactive)	19.6 µM (inactive)	15.4 µM (inactive)	15.8 µM (inactive)	–	15 µM (inactive)
CN(/N=C(\C(=O)O)c1ccccc1)C1=NCCCN1	> 100 µM (inactive)	> 100 µM (inactive)	> 100 µM (inactive)	> 100 µM (inactive)	> 100 µM (inactive)	> 100 µM (inactive)	> 100 µM (inactive)	> 100 µM (inactive)	> 100 µM (inactive)	–	> 100 µM (inactive)	> 100 µM (inactive)	73.3 µM (inactive)	> 100 µM (inactive)	> 100 µM (inactive)	> 100 µM (inactive)	> 100 µM (inactive)	> 100 µM (inactive)	> 100 µM (inactive)	> 100 µM (inactive)
Nc1ccc2c(c1)nc1n2C(c2c(F)cccc2F)SC1 (stereo unspecified)	> 100 µM (inactive)	> 100 µM (inactive)	> 100 µM (inactive)	> 100 µM (inactive)	> 100 µM (inactive)	–	53.7 µM (inactive)	> 100 µM (inactive)	> 100 µM (inactive)	> 100 µM (inactive)	> 100 µM (inactive)	> 100 µM (inactive)	> 100 µM (inactive)	> 100 µM (inactive)	> 100 µM (inactive)	> 100 µM (inactive)	> 100 µM (inactive)	> 100 µM (inactive)	61.2 µM (inactive)	> 100 µM (inactive)
S=c1[nH]c(Cl)cc2nc(Cl)cn12	4.14 µM (inactive)	7.29 µM (inactive)	5.43 µM (inactive)	1.98 µM (inactive)	8.79 µM (inactive)	15 µM (inactive)	4.53 µM (inactive)	–	3.72 µM (inactive)	6.04 µM (inactive)	2.1 µM (inactive)	2.65 µM (inactive)	2.25 µM (inactive)	2.88 µM (inactive)	3.82 µM (inactive)	4.74 µM (inactive)	4.66 µM (inactive)	4.84 µM (inactive)	2.52 µM (inactive)	20.2 µM (inactive)
CC(C)(CCC(C)(C)N1OC1c1ccccc1)N1OC1c1ccccc1 (stereo unspecified)	57.1 µM (inactive)	> 100 µM (inactive)	26.4 µM (inactive)	39.9 µM (inactive)	31.9 µM (inactive)	76.9 µM (inactive)	23.4 µM (inactive)	13.4 µM (inactive)	54.1 µM (inactive)	47.5 µM (inactive)	> 100 µM (inactive)	> 100 µM (inactive)	–	44.5 µM (inactive)	56.8 µM (inactive)	> 100 µM (inactive)	54.7 µM (inactive)	–	9.31 µM (inactive)	11.6 µM (inactive)
